Earlier results on three compounds are cited in US12205808B2 (priority 2019, dated 2025).

The conditions of the data set: in vivo.

For `CC(C)[C@H](NC(=O)c1nn(CC2CCCCC2)c2ccccc12)C(N)=O`, the Concentration in plasma is 0.4 to 14.3 ng/mL and the Whole blood concentrations was 0.6 to 10 ng/mL. On to `N#CCCCCn1cc(C(=O)c2cccc3ccccc23)c2ccccc21` [AM-2232], for which the “Concentration in postmortem plasma samples” value is reported as 0.86 ng/mL. `Cc1ccc(C(=O)c2cn(CCCCCF)c3ccccc23)c2ccccc12` [MAM-2201]: the “Concentration in postmortem plasma samples” value is 16.3 ng/mL.
